Measurements from paper PMC6199744, “Development of Chemical Proteomics for the Folateome and Analysis of the Kinetoplastid Folateome” (ACS Infectious Diseases, 2018).
Several values for one entry are separate records, joined by “and”; a condition that tells them apart may be missing. Equal values may be shown once. Read-outs that look alike come from different tables or passages of the source.

Test system: L. major lysate proteins
Assay: Multitargeted bead mixture chemoproteomics, single concentration competition, proteome-wide
Type: binding

NCCCNc1ccc(C(=O)NC(CCC(=O)O)C(=O)O)cc1 (stereo not drawn) [compound 7]
fold change: 0.99
fold change relative to vehicle control: 1.03 and 1.04
fold change vs vehicle control: 1.19 and 1.04 and 1.12
protein inhibition, any captured protein (Figure 8) (bead mixture, L. major lysate): no protein inhibition >30%
fold change vs vehicle control (protein CLI00016468.1 KINETOPLASTID MEMBRANE PROTEIN-11): 0.73
fold change vs vehicle control (protein LINJ.03.0240 RIBOSOMAL PROTEIN L38, PUTATIVE): 1.02
fold change vs vehicle control (protein LINJ.11.0780 40S RIBOSOMAL PROTEIN S21, PUTATIVE): 1.05
fold change (protein LINJ.11.0960 40S RIBOSOMAL PROTEIN S5, vehicle control = 1): 0.98
fold change vs vehicle control (protein LINJ.13.0990 […] SUBUNIT 2, PUTATIVE): 1.26
fold change vs vehicle control (protein LINJ.15.0330 RIBONUCLEOPROTEIN P18, MITOCHONDRIAL PRECURSOR, PUTATIVE): 0.97
fold change (protein LINJ.19.0090 FIBRILLARIN, PUTATIVE, vehicle control = 1): 1.04
fold change relative to vehicle control (protein LINJ.23.0860, 3-KETOACYL-COA THIOLASE, PUTATIVE): 1.02
fold change relative to vehicle control (protein LINJ.24.2300, 60S RIBOSOMAL PROTEIN L12, PUTATIVE): 1.04
fold change vs vehicle control (protein LINJ.25.2230 SUCCINYL-COA SYNTHETASE ALPHA SUBUNIT, PUTATIVE): 0.97
fold change vs vehicle control (protein LINJ.26.1630 40S RIBOSOMAL PROTEIN S33, PUTATIVE): 1.04
fold change vs vehicle control (protein LINJ.28.1100 RIBOSOMAL PROTEIN S20, PUTATIVE): 1.02
fold change relative to vehicle control (protein LINJ.28.1940, REPLICATION FACTOR A, 51KDA SUBUNIT, PUTATIVE): 1.1
fold change (protein LINJ.28.2280 DYNEIN LIGHT CHAIN LC6, FLAGELLAR OUTER ARM, PUTATIVE, vehicle control = 1): 0.9
fold change (protein LINJ.28.2870 PROTEIN PHOSPHATASE 4 CATALYTIC SUBUNIT, PUTATIVE, vehicle control = 1): 0.91
fold change relative to vehicle control (protein LINJ.31.1600, […] OXIDASE VIII (COX VIII), PUTATIVE): 1.19
fold change relative to vehicle control (protein LINJ.33.1730, CYCLOPHILIN 4, PUTATIVE): 1.08
fold change vs vehicle control (protein LINJ.34.0670 PROTEASOME REGULATORY NON-ATP-ASE SUBUNIT 11, PUTATIVE,19S PROTEASOME REGULATORY SUBUNIT): 0.97
fold change vs vehicle control (protein LINJ.36.0780 PROTEIN KINASE, PUTATIVE,MITOGEN-ACTIVATED PROTEIN KINASE, PUTATIVE): 1.26
fold change relative to vehicle control (protein LINJ.36.3960, BASIC TRANSCRIPTION FACTOR 3A, PUTATIVE): 1.58
fold change relative to vehicle control (protein LINJ.36.4080, HY[…], CONSERVED): 1.32
fold change (protein LINJ.36.4180 HS1VU COMPLEX PROTEOLYTIC SUBUNIT-LIKE, vehicle control = 1): 0.93
fold change vs vehicle control (protein LINJ.[…] LONG-CHAIN-FATTY-ACID-COA LIGASE, PUTATIVE): 0.9
fold change (protein LMJF.01.0570 TRIC[…], PUTATIVE, vehicle control = 1): 0.92
fold change relative to vehicle control (protein LMJF.03.0200, DELTA-1-PYRROLINE-5-CARBOXYLATE DEHYDROGENASE, PUTATIVE): 1.07
fold change (protein LMJF.03.0230 LONG CHAIN FATTY ACYL COA SYNTHETASE, PUTATIVE, vehicle control = 1): 1
fold change (protein LMJF.03.0980 […] 2 ALPHA SUBUNIT, PUTATIVE, vehicle control = 1): 1.01
fold change vs vehicle control (protein LMJF.04.0630 HY[…], CONSERVED): 1.07
fold change vs vehicle control (protein LMJF.04.1230 actin): 1.04
fold change (protein LMJF.05.0100 PHOSPHOPROTEIN PHOSPHATASE, PUTATIVE, vehicle control = 1): 0.91
fold change (protein LMJF.05.0280 PROTEIN TYROSINE PHOSPHATASE, PUTATIVE, vehicle control = 1): 0.99
fold change (protein LMJF.05.0510 ATPASE ALPHA SUBUNIT, vehicle control = 1): 1.08
fold change (protein LMJF.05.1040 STOMATIN-LIKE PROTEIN, vehicle control = 1): 0.92
fold change (protein LMJF.06.0650 LANOSTEROL SYNTHASE, PUTATIVE, vehicle control = 1): 0.95
fold change vs vehicle control (protein LMJF.07.0700 TOPOISOMERASE-RELATED FUNCTION PROTEIN-LIKE PROTEIN): 1.1
fold change (protein LMJF.07.1000 RNA BINDING PROTEIN-LIKE PROTEIN, vehicle control = 1): 0.88
fold change relative to vehicle control (protein LMJF.07.1140, PEPTIDE […] REDUCTASE-LIKE): 1.06
fold change (protein LMJF.08.0510 RIBOSE-PHOSPHATE PYROPHOSPHOKINASE, PUTATIVE, vehicle control = 1): 0.91
fold change vs vehicle control (protein LMJF.08.0550 TRANSLATION INITIATION FACTOR-LIKE PROTEIN): 0.9
fold change relative to vehicle control (protein LMJF.08.1030, cathepsin L-like protease): 1.03
fold change vs vehicle control (protein LMJF.08.1100 HYPOTHETICAL PROTEIN, CONSERVED): 0.98
fold change vs vehicle control (protein LMJF.09.1010 HYPOTHETICAL PROTEIN, CONSERVED): 0.75
fold change relative to vehicle control (protein LMJF.09.1120, MIT[…] BINDING PROTEIN 2,MRP2, GBP25): 1.14
fold change vs vehicle control (protein LMJF.09.1260 HYPOTHETICAL PROTEIN, CONSERVED): 0.95
fold change (protein LMJF.10.0210 NUCLEOLAR PROTEIN, PUTATIVE, vehicle control = 1): 1.01
fold change vs vehicle control (protein LMJF.10.0310 PROTEIN TRANSPORT PROTEIN SEC23, PUTATIVE): 1.31
fold change (protein LMJF.11.0590 3-[…]-COA C[…] SUBUNIT, PUTATIVE, vehicle control = 1): 1
fold change relative to vehicle control (protein LMJF.11.0630, AMINOPEPTIDASE, PUTATIVE,METALLO-PEPTIDASE, CLAN MF, FAMILY M17): 0.94
fold change vs vehicle control (protein LMJF.11.1050 PRETRA[…], ALPHA SUBUNIT, PUTATIVE,SEC61-LIKE (PRETRA[…]) PROTEIN, PUTATIVE): 1.07
fold change (protein LMJF.11.1160 PROTEIN TRANSPORT PROTEIN SEC31, PUTATIVE, vehicle control = 1): 1.26
fold change (protein LMJF.12.0030 PROTEASOME BETA-1 SUBUNIT, PUTATIVE, vehicle control = 1): 0.94
fold change vs vehicle control (protein LMJF.12.0210 […] […]1L8 3, PUTATIVE): 0.95
fold change relative to vehicle control (protein LMJF.12.0530, GLUCOSE-6-PHOSPHATE ISOMERASE): 1.09
fold change (protein LMJF.12.0630 ALANINE AMINOTRANSFERASE, vehicle control = 1): 0.93
fold change vs vehicle control (protein LMJF.13.1230 40S RIBOSOMAL PROTEIN S4, PUTATIVE): 1.05
fold change vs vehicle control (protein LMJF.14.0310 PROTEASOME ALPHA 3 SUBUNIT, PUTATIVE): 0.96
fold change (protein LMJF.14.0660 FATTY ACID ELONGASE, PUTATIVE, vehicle control = 1): 1.02
fold change (protein LMJF.14.0670 FATTY ACID ELONGASE, PUTATIVE, vehicle control = 1): 0.94
fold change vs vehicle control (protein LMJF.14.0680 FATTY ACID ELONGASE, PUTATIVE): 1.14
fold change (protein LMJF.14.0990 ADP/ATP MIT[…]-LIKE PROTEIN, vehicle control = 1): 1.25
fold change vs vehicle control (protein LMJF.14.1160 ENOLASE): 1.02
fold change (protein LMJF.14.1440 HYPOTHETICAL PROTEIN, CONSERVED (cytoskeleton associated protein, putative), vehicle control = 1): 0.82
